The record followed here is PMC5698383 (Applied Biochemistry and Biotechnology, 2017).

Test [1] concerns the target T1, FtFBPaseII (Francisella tularensis, UniProt Q5NEJ8).
T1 construct: gene gplX
Briefly: biochemical. As to conditions: read-out: % inhibition at 1 mM.

Test [2] concerns the target T1, FtFBPaseII.

T1 sequence (Q5NEJ8 1-328): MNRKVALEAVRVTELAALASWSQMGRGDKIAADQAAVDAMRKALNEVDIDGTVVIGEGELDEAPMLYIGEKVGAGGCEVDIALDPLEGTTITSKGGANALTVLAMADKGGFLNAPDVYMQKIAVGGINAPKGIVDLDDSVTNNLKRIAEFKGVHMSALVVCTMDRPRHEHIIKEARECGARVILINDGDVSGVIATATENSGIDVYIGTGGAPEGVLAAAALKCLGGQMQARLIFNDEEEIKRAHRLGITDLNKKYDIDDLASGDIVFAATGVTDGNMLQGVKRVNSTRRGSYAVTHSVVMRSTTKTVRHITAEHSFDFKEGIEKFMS

Broadly, the inhibition is the change of the read-out against control, counted positive when it falls. As to `Nc1ncnc2c1ncn2[C@@H]1O[C@H](COP(=O)(O)OP(=O)(O)O)[C@@H](O)[C@H]1O` [Adenosine diphosphate], the inhibition at 1000 µM on FtFBPaseII [1] came to 28%. A word on the % inhibition: it is the relative decrease from the control value, in per cent. Lower therefore signals little suppression. On to `O=P(O)(O)O` [phosphate], for which, on FtFBPaseII [2], the “% inhibition at 150 μM” value is recorded as 69%.
